{"source": "patent US20230366875A1", "about": "“GPCR19-P2XN RECEPTOR COMPLEX AND USE THEREOF” (SEOUL NATIONAL UNIVERSITY R&DB FOUNDATION, priority 2020, published 2023)", "key": {"P2X7": {"target": "P2X7 (Homo sapiens, UniProt Q99572)", "sequence (Q8TDU6 whole entry partner)": "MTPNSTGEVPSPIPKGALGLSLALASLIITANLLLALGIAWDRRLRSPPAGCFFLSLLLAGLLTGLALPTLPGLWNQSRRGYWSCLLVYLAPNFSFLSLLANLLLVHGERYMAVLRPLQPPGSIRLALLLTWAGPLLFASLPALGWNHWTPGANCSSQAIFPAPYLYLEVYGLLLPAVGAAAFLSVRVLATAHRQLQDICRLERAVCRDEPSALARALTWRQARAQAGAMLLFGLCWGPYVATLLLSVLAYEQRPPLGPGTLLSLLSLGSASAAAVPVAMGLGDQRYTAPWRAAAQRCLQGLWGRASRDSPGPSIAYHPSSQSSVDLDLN", "sequence (Q99572 whole entry)": "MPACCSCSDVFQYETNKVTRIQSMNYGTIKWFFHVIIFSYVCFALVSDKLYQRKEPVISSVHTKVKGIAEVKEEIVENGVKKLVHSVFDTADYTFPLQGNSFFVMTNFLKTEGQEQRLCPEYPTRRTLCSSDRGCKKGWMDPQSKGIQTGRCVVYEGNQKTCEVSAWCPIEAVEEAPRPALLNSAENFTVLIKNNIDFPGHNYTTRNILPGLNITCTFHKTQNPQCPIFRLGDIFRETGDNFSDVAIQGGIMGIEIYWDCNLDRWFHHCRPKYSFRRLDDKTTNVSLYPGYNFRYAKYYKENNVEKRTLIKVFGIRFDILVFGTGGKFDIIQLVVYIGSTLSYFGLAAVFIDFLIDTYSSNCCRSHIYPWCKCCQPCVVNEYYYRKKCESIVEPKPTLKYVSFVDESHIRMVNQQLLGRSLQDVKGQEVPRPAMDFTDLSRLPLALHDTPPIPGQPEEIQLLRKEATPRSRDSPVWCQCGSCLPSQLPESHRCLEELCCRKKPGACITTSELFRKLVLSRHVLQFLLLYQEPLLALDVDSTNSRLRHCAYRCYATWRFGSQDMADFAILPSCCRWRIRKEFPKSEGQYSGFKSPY", "experiment": "Potassium ion channel assay in PMA-differentiated U937 cells", "settings": "U937 cells differentiated by PMA (25 nM), BzATP (600 μM), HY209 (1 μM) 1 hour before BzATP", "experimental": "Specifically, U937 cells were used to investigate whether the activity of ion channel was changed by the regulation of GPCR19. U937 cells were differentiated by treatment with PMA (25 nM). After that, a fluorescent probe was added and the reaction was conducted for 1 hour. Thereafter, the cells were treated with BzATP (600 μM), and the cumulative fluorescence value was measured using an ELISA instrument to investigate whether the ion channel was activated."}, "IL-1β [1]": {"tested_on": "IL-1β", "experiment": "IL-1β ELISA of HaCaT culture supernatant", "format": "cell-based, human", "settings": "HaCaT cells", "procedure": "Thereafter, the IL-1β concentration was measured according to the manufacturer's procedure using the IL-113 ELISA kit (R&D Systems Minneapolis, MN, USA) (FIG. 3B)."}, "P2X7 receptor [2]": {"tested_on": "P2X7 receptor", "experiment": "Ca++ mobilization by P2X7 receptor in keratinocytes", "format": "cell-based, human", "settings": "HaCaT cells, IL-1β (10 ng/ml)+TNF-α (10 ng/ml), HY209 200, 400 and 800 ng/ml, 20 μM BzATP or ATP"}, "P2X7 receptor [3]": {"target": "T1, P2X7 receptor (Mus musculus, UniProt Q9Z1M0)", "T1 construct": "endogenous in cells; host or cells: primary BMDM (bone marrow-derived macrophages)", "T1 sequence (Q80SS6 whole entry partner)": "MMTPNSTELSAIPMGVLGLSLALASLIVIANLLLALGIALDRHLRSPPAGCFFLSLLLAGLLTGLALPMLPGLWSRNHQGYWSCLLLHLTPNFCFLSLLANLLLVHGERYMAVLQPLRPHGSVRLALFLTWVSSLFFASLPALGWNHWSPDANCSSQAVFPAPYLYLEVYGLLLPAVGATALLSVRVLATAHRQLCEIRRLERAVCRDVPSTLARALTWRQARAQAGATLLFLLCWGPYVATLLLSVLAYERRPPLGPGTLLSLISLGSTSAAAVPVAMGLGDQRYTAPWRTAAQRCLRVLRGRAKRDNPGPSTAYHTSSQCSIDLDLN", "T1 sequence (Q9Z1M0 whole entry)": "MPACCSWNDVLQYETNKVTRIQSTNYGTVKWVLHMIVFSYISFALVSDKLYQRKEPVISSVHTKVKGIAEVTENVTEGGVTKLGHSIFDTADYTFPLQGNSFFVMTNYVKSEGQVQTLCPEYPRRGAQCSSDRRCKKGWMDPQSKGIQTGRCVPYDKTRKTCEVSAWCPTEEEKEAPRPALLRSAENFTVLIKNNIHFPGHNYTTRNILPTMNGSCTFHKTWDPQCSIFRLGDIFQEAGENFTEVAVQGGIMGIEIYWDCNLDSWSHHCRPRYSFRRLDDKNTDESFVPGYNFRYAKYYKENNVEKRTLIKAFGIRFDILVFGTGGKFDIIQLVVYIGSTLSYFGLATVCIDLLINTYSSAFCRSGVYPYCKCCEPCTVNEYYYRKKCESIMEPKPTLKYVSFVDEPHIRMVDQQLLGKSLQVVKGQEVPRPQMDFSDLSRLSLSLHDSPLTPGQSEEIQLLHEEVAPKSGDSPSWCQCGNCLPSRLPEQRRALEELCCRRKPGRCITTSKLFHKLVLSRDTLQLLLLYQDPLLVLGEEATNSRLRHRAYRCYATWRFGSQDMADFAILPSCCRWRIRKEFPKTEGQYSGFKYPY", "experiment": "Ca++ mobilization by P2X7 receptor in macrophages", "format": "cell-based", "settings": "BMDM cells, LPS (100 ng/ml)+HY209 (400 ng/ml) 1 hour, ATP (20 μM) or BzATP (40 μM)", "procedure": "Specifically, BMDMs were obtained from three normal (wild-type, WT), GPCR19 KO or P2X7 KO mice. Then, the obtained BMDMs were treated with 20 μM ATP, attached to a glass coverslip, and then incubated in a physiological external solution consisting of NaCl 138 mM, KCl 5.6 mM, MgCl2 2 mM, HEPES 10 mM and pH 7.4 glucose 10 mM with 2 μM Fluo-4/AM in a 37° C. incubator for 30 minutes to observe intracellular Ca^++ mobilization. After that, the BMDMs were transferred to an open perfusion chamber to remove residual Fluo-4/AM, and the fluorescence level was measured using a fluorescence microscope (Nikon, Tokyo, Japan) under the conditions of excitation 494 nm and emission 506 nm. […]\nAfter the treatment, Ca^++ mobilization measurement was started, and the cells were treated with ATP (20 μM) or BzATP (40 μM) in the presence of 2 mM CaCl2) and 0.5 mM MgCl2 50 seconds after the start of measurement. Intracellular Ca^++ mobilization was measured with […] using a fluorescence microscope in the same manner as in Example <2-1>, and graphed (FIG. 2D, left panels in first and second rows). After three independent experiments, the sum of the measured data was presented (FIG. 2D, right panels in first and second rows)."}, "NLRP3 inflammasome [4]": {"tested_on": "NLRP3 inflammasome", "experiment": "Inflammasomal components in BMDM cells (immunostaining)", "format": "cell-based, mouse", "settings": "LPS (10 ng/ml)+HY209 (400 ng/ml) 1 hour, BzATP (300 μm) 1 hour", "procedure": "(§1) After that, in order to stain inflammasomal components, the cells were stained with anti-NLRP3 conjugated antibody (Abeam, Cambridge, UK) and anti-ASC Ab (Clone B-3, Santa Cruz Biotechnology, Inc. Dallas, Texas, USA) at 4° C. overnight, and then with Alexa Fluor 488-labeled or Alexa Fluor 532-labeled secondary conjugated antibody (Invitrogen, Carlsbad, CA, USA)."}, "P2X7 receptor [5]": {"tested_on": "P2X7 receptor", "experiment": "Ca++ mobilization by P2X7 receptor in microglia", "format": "cell-based, mouse", "settings": "BV2 cells, Aβ (2 μM)+HY209 (400 ng/ml) 1 hour, ATP (20 μM) or BzATP (40 μM)"}, "NLRP3 inflammasome [6]": {"tested_on": "NLRP3 inflammasome", "experiment": "Inflammasomal components in HaCaT cells (immunostaining)", "format": "cell-based, human", "settings": "TNF-α (20 ng/ml)+HY209 (400 ng/ml) 3 hours, then DNCB (5 μg/ml) 24 hours", "procedure": "as §1"}, "[7]": {"tested_on": "TNF-α, RANTES, MCP-1, IL-1β and IL-8", "experiment": "Cytokine measurement using cytometric bead array (CBA)", "format": "cell-based", "settings": "1 μM; compared with INT777, crisaborole, MCC950, A740003, GW791343, tofacitinib, prednisolone", "procedure": "Specifically, cocktail beads were prepared by mixing fluorescent beads bound with antibodies to five types of inflammatory cytokines, TNF-α, RANTES, MCP-1, IL-1β and IL-8 to be confirmed. Next, 50 μl of the prepared cocktail beads, the prepared sample, and the standard sample were reacted at room temperature for 1 hour in a dark environment. […] As a positive control group, 1 μM of prednisolone, a corticosteroid was used. The reaction mixture was transferred to a new tube by the required amount so that the phycoerythrin (PE) detection reagent was 1 μl/sample, and washed with the washing buffer, the capture bead diluent was added so as to be contained by 50 μl per each sample through the calculation of volume, and the reaction was conducted at room temperature for 15 minutes in a dark environment. Next, 50 μl of the prepared PE detection reagent was added into the tube in which the cocktail beads, the prepared sample, and the standard sample were reacting, mixing was thoroughly performed, and then the reaction was further conducted for 2 hours. After all reactions were completed, 1 ml of washing buffer was added, centrifugation was performed at 200 g for 5 minutes, then the supernatant was removed, 300 μl of washing buffer was added, and then quantitative measurement of the 5 types of inflammatory cytokines was performed using a flow cytometer (CANTO II FACS, BD Biosciences, US)."}, "IL-1β [8]": {"tested_on": "IL-1β", "experiment": "IL-1β ELISA of BMDM culture supernatant", "format": "cell-based, mouse", "settings": "BMDM cells", "procedure": "The cells were treated with ATP (500 μm) or BzATP (300 μm) for an additional 1 hour before recovery of the culture supernatant of the sample. IL-1β concentration in the culture supernatant recovered was measured according to the manufacturer's procedure using the IL-1β ELISA kit (R & D Systems Minneapolis, MN, USA) (FIG. 4A).\nIL-1β concentration in the culture supernatant recovered was measured according to the manufacturer's procedure using the IL-1β ELISA kit (R & D Systems Minneapolis, MN, USA) (FIG. 4B)."}}}
{"smiles": "C[C@H](CCC(=O)NCCS(=O)(=O)O)[C@H]1CC[C@H]2[C@@H]3CC[C@@H]4C[C@H](O)CC[C@]4(C)[C@H]3C[C@H](O)[C@]12C", "note": "[HY209, sodium taurodeoxycholate]", "values": [{"measurement": "decrease of cumulative fluorescence value increased by BzATP", "setting": "P2X7", "result": 100, "unit": "%"}, {"measurement": "increase in the production of IL-1β", "setting": "IL-1β [1]; TNF-α (20 ng/ml)+DNCB (5 μg/ml)+HY209 (400 ng/ml), 24 hours", "result": "suppressed"}, {"measurement": "increase in the production of IL-1β", "setting": "IL-1β [1]; TNF-α+DNCB+HY209 (400 ng/ml) 24 hours, then ATP 3 hours", "result": "suppressed"}, {"measurement": "Ca++ mobilization increased under the influence of IL-1β and TNF-α", "setting": "P2X7 receptor [2]", "result": "significantly decreases as the concentration of HY209 increases"}, {"measurement": "Ca++ mobilization increased under the influence of LPS", "setting": "P2X7 receptor [3]", "result": "significantly decreases"}, {"measurement": "increase in hASC expression", "setting": "NLRP3 inflammasome [4]", "result": "suppressed"}, {"measurement": "increase in hNLRP3-ASC oligomerization", "setting": "NLRP3 inflammasome [4]", "result": "suppressed"}, {"measurement": "increase in hNLRP3 expression", "setting": "NLRP3 inflammasome [4]", "result": "suppressed"}, {"measurement": "Ca++ mobilization increased under the influence of Aβ", "setting": "P2X7 receptor [5]", "result": "significantly decreases"}, {"measurement": "increase in hASC expression", "setting": "NLRP3 inflammasome [6]", "result": "suppressed"}, {"measurement": "increase in hNLRP3-ASC oligomerization", "setting": "NLRP3 inflammasome [6]", "result": "suppressed"}, {"measurement": "increase in hNLRP3 expression", "setting": "NLRP3 inflammasome [6]", "result": "suppressed"}, {"measurement": "inhibitory effect on five types of inflammatory cytokines produced by the inflammasome stimulation signal", "setting": "[7]", "result": "superior"}, {"measurement": "increase in the production of IL-1β", "setting": "IL-1β [8]; HY209 (400 ng/ml) after treatment with LPS+BzATP (posttreatment, 3 hours after LPS)", "result": "suppressed"}, {"measurement": "increase in the production of IL-1β", "setting": "IL-1β [8]; HY209 (400 ng/ml) before treatment with LPS+ATP (pretreatment, 1 hour before LPS)", "result": "suppressed"}, {"measurement": "increase in the production of IL-1β", "setting": "IL-1β [8]; LPS (10 ng/ml)+ATP (500 μm), HY209 0, 25, 100, 400 ng/ml", "result": "suppressed in a HY209 concentration-dependent manner"}, {"measurement": "increase in the production of IL-1β", "setting": "IL-1β [8]; LPS (10 ng/ml)+BzATP (300 μm), HY209 0, 25, 100, 400 ng/ml", "result": "suppressed in a HY209 concentration-dependent manner"}]}
